From US20120121574A1, “ANTIMICROBIAL, ANTIVIRAL, ANTICANCER AND IMMUNOMODULATORY PEPTIDES AND USES THEREFORE” (priority 2010, published 2012)
Where no end group is shown, it is not given here.

Tests used:
[1] = test system: C. albicans AIDS68 strain; experiment: murine model of vaginal candidiasis, fluconazole-resistant strain; assay type: in vivo, mice; conditions: peptide 25 micrograms intravaginally 1, 24 and 48 hours after challenge
Experimental: (§1) In vivo activity of N10K against vaginal candidiasis caused in mice by the fluconazole-resistant C. albicans AIDS68 strain. The anticandidal therapeutic activity of N10K was evaluated in a murine model of vaginal candidiasis. Groups of 5 mice were injected subcutaneously with 0.02 mg of estradiol benzoate in 100 μl of saline solution, […] and weekly thereafter. Then, mice given intravaginally 10^6 cells of the fluconazole-resistant C. albicans strain AIDS68 in 20 μl of saline solution on day 0 and were sampled for intravaginal CFU. N10K, 25 micrograms, was intravaginally administered in comparison to an irrelevant peptide (SP) as control, 1, 24 and 48 hours after the infectious challenge and sampled for intravaginal CFU at days 1, 2, 5, 7, 14, 21, and 28. The statistical significance was assessed by two-tailed Student's t test. On days 1, 2, 5, 7, 14, and 21, the differences in the CFU vaginal counts between N10K treated, untreated, SP treated and fluconazole treated animals were statistically significant (P<0.05) (Table VI).
as §1, with “T11F” for “N10K”, “T11F,” for “N10K,”, “VIII).” for “VI).”

[2] = test system: C. albicans SC5314 strain; conditions: for EC50: SC5314, 6 h; for EC50asd/EC50N10K: Table IX
Experimental: In vitro activity of N10K against C. albicans SC5314 strain. The candidacidal activity of N10K peptide against C. albicans was assessed by a conventional colony forming unit (CFU) assay as previously described (Polonelli et al., 2003; Manfredi et al., 2005). Briefly, cells of C. albicans SC5314 were incubated at 37° C. for 6 hours (hr) in the presence of N10K at the concentration indicated of 20, 12.5 or 6.25 microgram/ml, or in distilled water as control (C). After incubation, cell suspensions were plated on Sabouraud dextrose agar and incubated at 30° C. for 48 hours when CFU were counted (** P<0.01 for N10K treated versus untreated cells, by t test). […]
The alanine-substituted derivatives (asd), defined according to the position held by the alanine-substituted aminoacid, were tested against C. albicans by a conventional colony forming unit (CFU) as previously described (Polonelli et al., 2003). Briefly, cells of C. albicans SC5314 were incubated at 37° C. for 6 hours in the presence of N10K or N10K asd at different scalar concentrations or distilled water as control. After incubation, cell suspensions were plated on Sabouraud dextrose agar and incubated at 30° C. for 48 hours when CFU were counted. Based on several independent replications, the EC50 value of each peptide was calculated by nonlinear regression analysis using Graph Pad Prism 4.01 software, San Diego, Calif., USA. […]
In vitro microbicidal activity of N10K derivative with 2 amino acid substitutions, or 80% sequence identity with native N10K, namely peptide Seq Id. No. 25 was tested against Candida albicans SC5314 as determined by Colony Forming Unit assay.

## OC(Cn1cncn1)(Cn1cncn1)c1ccc(F)cc1F [fluconazole]
[1]; Day 0
  CFU vaginal counts: >100
[1]; Day 1
  CFU vaginal counts: >100
[1]; Day 2
  CFU vaginal counts: 93 ± 4.3
[1]; Day 5
  CFU vaginal counts: 61 ± 2.5
[1]; Day 7
  CFU vaginal counts: 44 ± 2.9
[1]; Day 14
  CFU vaginal counts: 18.7 ± 3.8
[1]; Day 21
  CFU vaginal counts: 11.7 ± 0.7
[1]; Day 28
  CFU vaginal counts: 0

## AQVSLTCLVK [asd N1A N10K, A Q V S L T C L V K]
[2]
  EC50: 587 nM
  EC50asd/EC50N10K: 0.58

## N Q V S L T C L V A (NQVSLTCLVA) [asd K10A]
[2]; at the concentration of 250 micrograms/ml
  percentual inhibition of C. albicans growth: * EC50 was not determined, asd K10A showed a percentual inhibition of C. albicans growth equal to 69.04 at the concentration of 250 micrograms/ml

## NQASLTCLVK [asd V3A N10K, N Q A S L T C L V K]
[2]
  EC50: 5930 nM
  EC50asd/EC50N10K: 5.91

## NQVALTCLVK [asd S4A N10K, N Q V A L T C L V K]
[2]
  EC50: 2390 nM
  EC50asd/EC50N10K: 2.38

## NQVSATCLVK [asd L5A N10K, N Q V S A T C L V K]
[2]
  EC50: 885 nM
  EC50asd/EC50N10K: 0.88

## NQVSATCSVK [L5A, L8S N10K, N Q V S A T C S V K]
[2]
  EC50: 43200 nM
[2]; Table III, in vitro, Fungus
  Activity: cidal

## NQVSLACLVK [asd T6A N10K, N Q V S L A C L V K]
[2]
  EC50: 4880 nM
  EC50asd/EC50N10K: 4.86

## NQVSLTALVK [asd C7A N10K, N Q V S L T A L V K]
[2]
  EC50: 54900 nM
  EC50asd/EC50N10K: 54.71

## NQVSLTCAVK [asd L8A N10K, N Q V S L T C A V K]
[2]
  EC50: 744 nM
  EC50asd/EC50N10K: 0.74

## NQVSLTCLAK [asd V9A N10K, N Q V S L T C L A K]
[2]
  EC50: 1780 nM
  EC50asd/EC50N10K: 1.77
